Patent publication US20140031288A1, “NOVEL COMPOSITION FOR TUMOR GROWTH CONTROL” (Erasmus University Medical Center, priority 2006, published 2014)

Key:
[1] = system: human BON carcinoid cells; assay: Apoptosis assay (DNA fragmentation, Cell Death Detection ELISA); assay type: cell-based; details: for effect on apoptosis, measured as DNA fragmentation, drug alone: 10^−8M
Procedure: Human pancreatic carcinoid BON cells were obtained from Dr Townsend (The University of Texas Medical Branch, Galveston, Tex., USA). The cells were cultured in a humidified incubator containing 5% CO2 at 37° C. The culture medium consisted of a 1:1 mixture of Dulbecco's modified Eagle's medium (DMEM) and F12K medium, supplemented with 10% FCS, penicillin (1×105 U/l), fungizone (0.5 mg/l) and 1-glutamine (2 mmol/l). Periodically, cells were confirmed as Mycoplasma-free. Cells were harvested with trypsin EDTA 10% and resuspended in medium. Before plating, cells were counted microscopically using a standard hemocytometer. […] Media and supplements were obtained from GIBCO Bio-cult Europe (Invitrogen, Breda, The Netherlands).
After trypsinization BON cells were plated in 24-well plates at a density of 1.5-2×10^4 cells/well. These plates were placed in a 37° C., 5% CO2 incubator. Three days later the medium was refreshed in the presence and absence (control group) of 5-aza-2′-deoxycytidine at different concentrations in the dose curve response experiment (10^−5M, 10^−6M, 10^−7M, 10^−8M and 10^−9M) or 5-aza-2′-deoxycytidine (5×10^−8M) with or without the somatostatin analog octreotide (10^−8M) or the dopamine agonist cabergoline (10^−8M).
Quadruplicates of each treatment were performed. After an additional incubation of 3 days, apoptosis was assessed using a commercially available ELISA kit (Cell Death Detection ELISAPlus, Roche Diagnostic GmbH, Penzberg, Germany). This assay is based on a quantitative sandwich-enzyme-immunoassay-principle, using mouse monoclonal antibodies directed against DNA and histones, respectively. This allows the specific determination of mono- and oligo-nucleosomes in the cytoplasmatic fraction of cell lysate, typical for apoptosis. The standard protocol supplied by the manufacturer was used. Briefly, the medium was carefully removed by suction, cells were incubated in 100 μl of lysis buffer (provided with the Cell Death Detection ELISAPlus assay). After lysis of the cells the solution was incubated with anti-DNA and anti-histone antibodies in a streptavidin-coated 96-well plate for 2 hours. After washing, the immunocomplex-bound peroxidase was probed with 2,2′-azino-di[3-ethylbenzthiazoline sulfonate] (a chromogenic substrate) for spectrophotometric detection at 405 nm, to quantify the amount of nucleosomes bound to the plate. Relative apoptosis was determined by a ratio of the average absorbance of the treatment wells to the average absorbance of the control wells.

[2] = system: human BON carcinoid tumor cells; assay: Cell proliferation assay (total DNA content, Hoechst 33258); assay type: cell-based; details: for effect on BON carcinoid cell growth, measured as DNA content: 10^−8M, drug alone
Procedure: Human pancreatic carcinoid BON cells were obtained from Dr Townsend (The University of Texas Medical Branch, Galveston, Tex., USA). The cells were cultured in a humidified incubator containing 5% CO2 at 37° C. The culture medium consisted of a 1:1 mixture of Dulbecco's modified Eagle's medium (DMEM) and F12K medium, supplemented with 10% FCS, penicillin (1×105 U/l), fungizone (0.5 mg/l) and 1-glutamine (2 mmol/l). Periodically, cells were confirmed as Mycoplasma-free. Cells were harvested with trypsin EDTA 10% and resuspended in medium. Before plating, cells were counted microscopically using a standard hemocytometer. Trypan Blue staining was used to assess cell viability, which always exceeded 95%. Media and supplements were obtained from GIBCO Bio-cult Europe (Invitrogen, Breda, The Netherlands).
After trypsinization, the cells were plated in 1 ml of medium in 24-well plates at a density of 0.4-2×10^4 cells/well. The plates were then placed in a 37° C., 5% CO2 incubator. Three days later the cell culture medium was replaced with 1 ml/well medium containing 5-aza-2′-deoxycytidine at different concentrations in the dose curve response experiment (0, 10^−5M, 10^−6M, 10^−7M, 10^−8M and 10^−9M) or 5-aza-2′-deoxycytidine (5×10^−8M) with or without the somatostatin analog octreotide (10^−8M) or the dopamine agonist cabergoline (10^−8M). In experiments evaluating the combination of 5-aza-2′-deoxycytidine and octreotide or cabergoline, a pre-treatment with 5-aza-2′-deoxycytidine (5×10^−8M) has been performed for 24 hours.
Plates were further incubated at 37° C. and 5% CO2. After 3 and 6 days of treatment cells were harvested for DNA measurement. Plates for 6 days were refreshed after 3 days and compounds were added again. Quadruplicates of each treatment were performed. Measurement of total DNA-contents, representative for the number of cells, was performed using the bisbenzimide fluorescent dye (Hoechst™ 33258) (Boehring Diagnostics, La Jolla, Calif.), as previously described (Hofland L J, van Koetsveld P M, Lamberts S W. Percoll density gradient centrifugation of rat pituitary tumor cells: a study of functional heterogeneity within and between tumors with respect to growth rates, prolactin production and responsiveness to the somatostatin analog SMS 201-995. Eur J Cancer 1990; 26:37-44.).

| SMILES | effect on apoptosis, measured as DNA fragmentation, drug alone ([1]; 3 day incubation) | effect on BON carcinoid cell growth, measured as DNA content ([2]; 3 or 6 day incubation) | induction of DNA fragmentation ([1]; 5×10^−8M, 3 days, p<0.001 vs control) | induction of DNA fragmentation, dose curve ([1]; 3 day incubation, 10^−9M to 10^−5M, data not shown) | effect of AZA alone on DNA fragmentation (FIG. 3, FIG. 4) ([1]; AZA (5 nM) alone) | EC25 value of the apoptosis inducing effect ([1]; after 3 days of incubation) | inhibition of BON carcinoid cell growth, dose curve ([2]; 3 or 6 day incubation, 10^−9M to 10^−5M, data not shown) | inhibition of BON carcinoid cell growth at low dose ([2]; 5×10^−8M, 6 days, p<0.001 vs control) | IC25 value of the tumor cell growth inhibitory effect ([2]; after 6 days of incubation) |
| --- | --- | --- | --- | --- | --- | --- | --- | --- | --- |
| C=CCN1C[C@H](C(=O)N(CCCN(C)C)C(=O)NCC)C[C@@H]2c3cccc4[nH]cc(c34)C[C@H]21 [cabergoline] | no statistically significant effect | no statistically significant effect | – | – | – | – | – | – | – |
| C[C@@H](O)[C@@H]1NC(=O)[C@H](CCCCN)NC(=O)[C@@H](Cc2c[nH]c3ccccc23)NC(=O)[C@H](Cc2ccccc2)NC(=O)[C@@H](NC(=O)[C@H](N)Cc2ccccc2)CSSC[C@@H](C(=O)N[C@H](CO)[C@@H](C)O)NC1=O [octreotide] | no statistically significant effect | no statistically significant effect | – | – | – | – | – | – | – |
| Nc1ncn([C@H]2C[C@H](O)[C@@H](CO)O2)c(=O)n1 [5-aza-2′-deoxycytidine] | – | – | approximately 100% | dose-dependent manner | moderate effect | approximately 5×10^−8 M | time- and dose-dependent manner | significantly inhibited | approximately 5×10^−8 M |
